Test results published in patent publication US20250144094A1 (Erasca, Inc., priority 2021, published 2025).

Biological target: Recombinant human ULK1 (1-649) (Homo sapiens (Human), UniProt O75385)
Test: ULK1 ADP Glo kinase activity assay, new method (ULKtide peptide substrate)
Details: 25° C., 40 minutes, read-out: ULK1 biochemical IC50
Outline: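 GST-tagged human ULK1 (1-649) from Sf9 cells was reacted with ULKtide peptide and ATP for 40 min at 25 °C across 12-point compound dilutions from 10 μM. ADP formed was quantified by ADP-Glo luminescence; IC50 came from four-parameter fits relative to DMSO controls.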

Recombinant human ULK1 (1-649), sequence (O75385 1-649): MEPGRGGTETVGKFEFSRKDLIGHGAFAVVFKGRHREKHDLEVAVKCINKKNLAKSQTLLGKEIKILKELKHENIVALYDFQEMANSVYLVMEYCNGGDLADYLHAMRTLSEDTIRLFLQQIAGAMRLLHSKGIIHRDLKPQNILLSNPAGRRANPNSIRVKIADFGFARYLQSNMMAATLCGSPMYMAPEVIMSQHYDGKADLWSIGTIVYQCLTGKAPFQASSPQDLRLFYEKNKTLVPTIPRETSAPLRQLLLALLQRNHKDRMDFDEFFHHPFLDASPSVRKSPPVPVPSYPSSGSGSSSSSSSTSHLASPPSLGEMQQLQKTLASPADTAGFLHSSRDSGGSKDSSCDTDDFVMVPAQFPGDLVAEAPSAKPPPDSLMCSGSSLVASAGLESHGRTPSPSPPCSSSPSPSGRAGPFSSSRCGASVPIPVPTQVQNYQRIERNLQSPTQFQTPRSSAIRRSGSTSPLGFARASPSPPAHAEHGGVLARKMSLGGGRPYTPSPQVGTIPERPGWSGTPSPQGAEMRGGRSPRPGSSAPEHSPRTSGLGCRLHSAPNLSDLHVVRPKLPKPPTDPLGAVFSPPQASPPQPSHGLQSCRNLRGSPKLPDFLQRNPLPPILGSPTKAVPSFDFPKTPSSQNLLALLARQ

With `CCN1CCc2cc(Nc3ncc(C(F)(F)F)c(-c4cc5c(s4)C(=O)N(C4CC4)CCS5(=O)=O)n3)c(C3CC3)cc2C1` [Example 233, 4-cyclopropyl-7-(2-((7-cyclopropyl-2-ethyl-1,2,3,4-tetrahydroisoquinolin-6-yl)amino)-5-(trifluoromethyl)pyrimidin-4-yl)-3,4-dihydrothieno[2,3-f][1,4]thiazepin-5(2H)-one 1,1-dioxide] the IC50 was ≤ 5 nM.

`O=C1c2sc(-c3nc(Nc4cc5c(cc4C4CC4)CN(CC4COC4)CC5)ncc3C(F)(F)F)cc2S(=O)(=O)CCN1C1CC1` [Example 234, 4-cyclopropyl-7-(2-((7-cyclopropyl-2-(oxetan-3-ylmethyl)-1,2,3,4-tetrahydroisoquinolin-6-yl)amino)-5-(trifluoromethyl)pyrimidin-4-yl)-3,4-dihydrothieno[2,3-f][1,4]thiazepin-5(2H)-one 1,1-dioxide] was tested, and the IC50 was ≤ 5 nM.

`O=C1c2sc(-c3nc(Nc4cc5c(cc4C4CC4)CN(CC4CC4)CC5)ncc3C(F)(F)F)cc2S(=O)(=O)CCN1C1CC1` [Example 235, 4-cyclopropyl-7-(2-((7-cyclopropyl-2-(cyclopropylmethyl)-1,2,3,4-tetrahydroisoquinolin-6-yl)amino)-5-(trifluoromethyl)pyrimidin-4-yl)-3,4-dihydrothieno[2,3-f][1,4]thiazepin-5(2H)-one 1,1-dioxide] was tested, and the IC50 was ≤ 5 nM.

With `CN1CCS(=O)(=O)c2cc(-c3nc(Nc4cc5c(cc4C4CC4)CN(CCF)CC5)ncc3C(F)(F)F)sc2C1=O` [Example 236, 7-(2-((7-cyclopropyl-2-(2-fluoroethyl)-1,2,3,4-tetrahydroisoquinolin-6-yl)amino)-5-(trifluoromethyl)pyrimidin-4-yl)-4-methyl-3,4-dihydrothieno[2,3-f][1,4]thiazepin-5(2H)-one 1,1-dioxide] the IC50 was ≤ 5 nM.

For `CN1CCS(=O)(=O)c2cc(-c3nc(Nc4cc5c(cc4Cl)CN(CCF)CC5)ncc3C(F)(F)F)sc2C1=O` [Example 237, 7-(2-((7-chloro-2-(2-fluoroethyl)-1,2,3,4-tetrahydroisoquinolin-6-yl)amino)-5-(trifluoromethyl)pyrimidin-4-yl)-4-methyl-3,4-dihydrothieno[2,3-f][1,4]thiazepin-5(2H)-one 1,1-dioxide], the IC50 was ≤ 5 nM.

`CN1CCS(=O)(=O)c2cc(-c3nc(Nc4ccc(N5CCNCC5)cc4C4CC4)ncc3C(F)(F)F)sc2C1=O` [Example 238, 7-(2-((2-cyclopropyl-4-(piperazin-1-yl)phenyl)amino)-5-(trifluoromethyl)pyrimidin-4-yl)-4-methyl-3,4-dihydrothieno[2,3-f][1,4]thiazepin-5(2H)-one 1,1-dioxide] gave an IC50 of 5 to 10 nM.

In the case of `O=C1c2sc(-c3nc(Nc4ccc(N5CCNCC5)cc4C4CC4)ncc3C(F)(F)F)cc2S(=O)(=O)CCN1C1CC1` [Example 239, 4-cyclopropyl-7-(2-((2-cyclopropyl-4-(piperazin-1-yl)phenyl)amino)-5-(trifluoromethyl)pyrimidin-4-yl)-3,4-dihydrothieno[2,3-f][1,4]thiazepin-5(2H)-one 1,1-dioxide], the IC50 is reported as ≤ 5 nM.

In the case of `O=C1c2sc(-c3nc(Nc4ccc(C5CCNCC5)cc4C4CC4)ncc3C(F)(F)F)cc2S(=O)(=O)CCN1C1CC1` [Example 240, 4-cyclopropyl-7-(2-((2-cyclopropyl-4-(piperidin-4-yl)phenyl)amino)-5-(trifluoromethyl)pyrimidin-4-yl)-3,4-dihydrothieno[2,3-f][1,4]thiazepin-5(2H)-one 1,1-dioxide], the IC50 is reported as ≤ 5 nM.

For `O=C1c2sc(-c3nc(Nc4ccc(C5CCN(CC6CC6)CC5)cc4C4CC4)ncc3C(F)(F)F)cc2S(=O)(=O)CCN1C1CC1` [Example 241, 4-cyclopropyl-7-(2-((2-cyclopropyl-4-(1-(cyclopropylmethyl)piperidin-4-yl)phenyl)amino)-5-(trifluoromethyl)pyrimidin-4-yl)-3,4-dihydrothieno[2,3-f][1,4]thiazepin-5(2H)-one 1,1-dioxide], the IC50 was ≤ 5 nM.

With `CCc1cc2c(cc1Nc1ncc(C(F)(F)F)c(-c3cc4c(s3)C(=O)N(C3CC3)CCS4(=O)=O)n1)CCN(CC1CC1)C2` [Example 242, 4-cyclopropyl-7-(2-((2-(cyclopropylmethyl)-7-ethyl-1,2,3,4-tetrahydroisoquinolin-6-yl)amino)-5-(trifluoromethyl)pyrimidin-4-yl)-3,4-dihydrothieno[2,3-f][1,4]thiazepin-5(2H)-one 1,1-dioxide] the IC50 was ≤ 5 nM.

`CCc1cc2c(cc1Nc1ncc(C(F)(F)F)c(-c3cc4c(s3)C(=O)N(C3CC3)CCS4(=O)=O)n1)CCN(CCF)C2` [Example 243] was tested, and the IC50 was ≤ 5 nM.

For `CCN1CCc2cc(Nc3ncc(C(F)(F)F)c(-c4cc5c(s4)C(=O)N(C4COC4)CCS5(=O)=O)n3)c(C3CC3)cc2C1` [Example 244, 7-(2-((7-cyclopropyl-2-ethyl-1,2,3,4-tetrahydroisoquinolin-6-yl)amino)-5-(trifluoromethyl)pyrimidin-4-yl)-4-(oxetan-3-yl)-3,4-dihydrothieno[2,3-f][1,4]thiazepin-5(2H)-one 1,1-dioxide], the IC50 was ≤ 5 nM.

`CN1CCS(=O)(=O)c2cc(-c3nc(Nc4cc5c(cc4Cl)CN(CC4CC4)CC5)ncc3C(F)(F)F)sc2C1=O` [Example 246, 7-(2-((7-chloro-2-(cyclopropylmethyl)-1,2,3,4-tetrahydroisoquinolin-6-yl)amino)-5-(trifluoromethyl)pyrimidin-4-yl)-4-methyl-3,4-dihydrothieno[2,3-f][1,4]thiazepin-5(2H)-one 1,1-dioxide] was tested, and the IC50 was ≤ 5 nM.

In the case of `CSc1cc2c(cc1Nc1ncc(C(F)(F)F)c(-c3cc4c(s3)C(=O)N(C3CC3)CCS4(=O)=O)n1)CCNC2` [Example 247, 4-cyclopropyl-7-(2-((7-(methylthio)-1,2,3,4-tetrahydroisoquinolin-6-yl)amino)-5-(trifluoromethyl)pyrimidin-4-yl)-3,4-dihydrothieno[2,3-f][1,4]thiazepin-5(2H)-one 1,1-dioxide], the IC50 is reported as ≤ 5 nM.

`CC(C)N1CCc2cc(Nc3ncc(C(F)(F)F)c(-c4cc5c(s4)C(=O)N(C4CC4)CCS5(=O)=O)n3)c(C3CC3)cc2C1` [Example 248, 4-cyclopropyl-7-(2-((7-cyclopropyl-2-isopropyl-1,2,3,4-tetrahydroisoquinolin-6-yl)amino)-5-(trifluoromethyl)pyrimidin-4-yl)-3,4-dihydrothieno[2,3-f][1,4]thiazepin-5(2H)-one 1,1-dioxide] was tested, and the IC50 was ≤ 5 nM.

`O=C1c2sc(-c3nc(Nc4cc5c(cc4C4CC4)CN(CCF)CC5)ncc3C(F)(F)F)cc2S(=O)(=O)CCN1C1CC1` [Example 249, 4-cyclopropyl-7-(2-((7-cyclopropyl-2-(2-fluoroethyl)-1,2,3,4-tetrahydroisoquinolin-6-yl)amino)-5-(trifluoromethyl)pyrimidin-4-yl)-3,4-dihydrothieno[2,3-f][1,4]thiazepin-5(2H)-one 1,1-dioxide] was tested, and the IC50 was ≤ 5 nM.

In the case of `CN1CCS(=O)(=O)c2cc(-c3nc(Nc4ccc(N5CCN(CC6CC6)CC5)cc4C4CC4)ncc3C(F)(F)F)sc2C1=O` [Example 250, 7-(2-((2-cyclopropyl-4-(4-(cyclopropylmethyl)piperazin-1-yl)phenyl)amino)-5-(trifluoromethyl)pyrimidin-4-yl)-4-methyl-3,4-dihydrothieno[2,3-f][1,4]thiazepin-5(2H)-one 1,1-dioxide], the IC50 is reported as ≤ 5 nM.
